Assay results as given in patent US20220267720A1, “FIBROSIS-SPECIFIC CELL CULTURE SUBSTRATE AND METHODS OF USE” (Xylyx Bio, Inc., priority 2019, published 2022).

Experiments:
[1] = system: human hepatic stellate cells (HSC); experiment: IC50 response of hepatic stellate cells to Erlotinib, XTT assay; format: cell-based; details: HSC on fibrotic or normal soluble ECM or plastic, 72 hours with drug
Method: Methods: Primary human hepatocytes, HepG2 cells (human hepatocarcinoma cell type commonly used to model hepatocytes), and human hepatic stellate cells (HSC) were cultured for up to 7 days on normal or fibrotic human liver matrix scaffolds, Matrigel, collagen I hydrogels, and/or tissue culture plates (plastic) with or without collagen I coating.
HSCs differentially expressed fibrosis-related genes ACTA2, COL1A1 LOXL2 and PDGFR2 in liver scaffolds versus tissue plastic and Coll coated plates (FIG. 11B). […] Although morphologic similarities were observed between HSC cultured in fibrotic and normal liver ECM scaffolds, morphology differed from HSC cultured on artificial substrates (FIG. 11C). […] To test whether HSC cultured on different ECM respond differently to drug treatment then cells grown in standard 2D we measured the IC50 response of HSC to Erlotinib, an inhibitor of the epidermal growth factor receptor (EGFR) tyrosine, used for the treatment for several cancers and currently is in clinical trials for the treatment of hepatocarcinomatous originating from cirrhotic livers (FIG. 11F). 5000 cells were plated on 96 wells on fibrotic or normal ECM soluble ECM and on plastic. 24 hours later Erlotinib or DMSO vehicle in different concentrations was added. Cells were grown with drugs for 72 hours (with media+drug replenished every day). Cell number were assed using a standard XTT assay.

[2] = Diffusivity of fluorescent trackers through liver ECM hydrogels; format: physicochemical
Excerpt: Physiochemical characterizations of fibrotic and normal human liver matrix hydrogels.

[3] = system: Normal human pulmonary fibroblasts; experiment: Proliferation and myofibroblast differentiation assay in fibrotic human lung ECM hydrogel; format: cell-based
Method: Normal human pulmonary fibroblasts were cultured in fibrotic human lung ECM hydrogel for up to 5 days and subjected to live cell imaging with CellTracker™ red, immunofluorescence imaging in multi-well plates, and a common cell-based proliferation assay. Cells were cultured in fibrotic lung ECM hydrogel for 2 days, then TGFβ1 (5 nM) was added to induce myofibroblast differentiation, along with 2.7 mM Pirfenidone (FDA-approved gold standard anti-fibrotic drug) or DMSO vehicle ([…]) control for […] prior to assay readouts on day 5. […] After 48 hours, 1standard immunofluorescence staining was performed in situ in 96-well plates. Fibroblasts expressed vimentin, αSMA, and proliferation marker Ki67 (white arrows, FIG. 21B).

[4] = system: Normal HSC; experiment: Cell-based proliferation assay of HSC in fibrotic human liver ECM hydrogel; details: TGFβ1 25 nM, Pirfenidone 2.7 mM, 3 days, readout day 5
Method: (§1) Normal HSC were cultured in fibrotic human liver ECM hydrogel for up to 5 days. Cells were cultured in fibrotic liver ECM hydrogel for 2 days, then TGFβ1 (25 nM) was added to induce activation, along with 2.7 mM Pirfenidone (FDA-approved gold standard anti-fibrotic drug) or DMSO vehicle (1%) control for 3 days prior to assay readouts on day 5. Cell-based proliferation assay, immunofluorescence imaging in multi-well plates, and Elisa for ProCollagen1 were performed. […] Conclusions: We confirmed compatibility of normal & fibrotic liver ECM hydrogel with common analytical techniques & assays used in early-stage drug development including discovery, screening, target validation.

[5] = system: Normal HSC; experiment: Ki67 immunofluorescence imaging of HSC in fibrotic human liver ECM hydrogel; format: cell-based; details: for proliferating Ki67+ cells (change): fibrotic liver ECM hydrogel, TGFβ1 25 nM, Pirfenidone 2.7 mM, readout day 5; for Ki67 positive cells after Pirfenidone treatment: 2.7 mM Pirfenidone
Method: as §1

[6] = system: pulmonary fibroblasts; experiment: Gene expression of fibroblasts in IPF matrix scaffolds treated with antifibrotic agent; format: cell-based, human
[7] = system: pulmonary fibroblasts; experiment: Growth curves of pulmonary fibroblasts in IPF and normal lung matrix scaffolds exposed to antifibrotic agent; format: cell-based, human
[8] = fibroblasts in IPF matrix scaffolds
[9] = fibrotic lung ECM scaffolds compared to tissue culture plastic

## C#Cc1cccc(Nc2ncnc3cc(OCCOC)c(OCCOC)cc23)c1 [Erlotinib]
[1]
  IC50 response of HSC to Erlotinib: lower for cells on normal ECM compared to fibrotic ECM and higher for plastic cultured cells

## CC1=CC(C)(C)N(C)c2cc3[o+]c4cc5c(cc4c(-c4cc(NC(=O)c6ccc(CCl)cc6)ccc4C(=O)[O-])c3cc21)C(C)=CC(C)(C)N5C.CC1=CC(C)(C)N(C)c2cc3[o+]c4cc5c(cc4c(-c4ccc(NC(=O)c6ccc(CCl)cc6)cc4C(=O)[O-])c3cc21)C(C)=CC(C)(C)N5C [CellTracker Red CMTPX]
[2]
  diffusion rate: > 2 mm h^−1

## TGFβ: transforming growth factor beta, added to induce activation / myofibroblast differentiation
[3]; TGFβ1 5 nM
  αSMA: increased
[4]
  cell proliferation: accelerated cell proliferation
[5]
  proliferating Ki67+ cells (change): significantly changed

## Cc1ccc(-c2ccc3c(ccc4sc5c(c43)NC[C@@H](C)NC5=O)n2)cn1 [PF3644022]
[6]; [8]
  expression of ACTA2: consistently reduced
  expression of COL1A1: consistently reduced
  expression of YAP1: No significant differences
[6]; [9]
  expression of genes associated with ECM production: downregulation
[7]; fibroblasts in IPF matrix scaffolds versus normal lung matrix scaffolds
  growth of fibroblasts, sensitivity and drug response: greater sensitivity and drug response
[7]; fibroblasts in normal lung matrix scaffolds, after 6 days
  growth of fibroblasts versus untreated cells: not significantly different from untreated cells
[7]; [9]
  sensitivity and drug response: greater sensitivity and drug response

## Cc1ccc(=O)n(-c2ccccc2)c1 [Pirfenidone]
[3]; 2.7 mM Pirfenidone with TGFβ1 5 nM, readout day 5
  proliferation of lung fibroblasts: decrease proliferation
[4]
  cell proliferation: slowed cell proliferation
[5]; HSC on liver ECM
  Ki67 positive cells after Pirfenidone treatment: ~20%
[5]; HSC on plastic
  Ki67 positive cells after Pirfenidone treatment: over 50%
[5]
  proliferating Ki67+ cells (change): significantly reduced
